Measurements: patent US11180462B2, “Microbiocidal oxadiazole derivatives” (SYNGENTA PARTICIPATIONS AG, priority 2015, dated 2021)

Key:
[1] = tested on: Puccinia recondita f. Sp. Tritici; assay: Fungicidal activity against Puccinia recondita f. sp. tritici / wheat / leaf disc preventative (brown rust); format: in vivo; settings: foliar, 200 ppm in the applied formulation, wheat leaf segments, preventative, compared to untreated control leaf disks, read-out: disease control
Summary of the method: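 200 ppm spray on wheat cv. Kanzler leaf segments; spore inoculation +1 day; 19° C., 75% rh, 12 h/12 h light cycle; single rating of % control vs untreated at 7 to 9 days.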

[2] = tested on: Puccinia recondita f. Sp. Tritici; assay: Fungicidal activity against Puccinia recondita f. sp. tritici / wheat / leaf disc curative (brown rust); format: in vivo; settings: foliar, 24 h, 200 ppm in the applied formulation, wheat leaf segments, curative (applied 1 day after inoculation), compared to untreated control leaf disks, read-out: disease control
Summary of the method: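 Segments of wheat cv. Kanzler were laid on agar and inoculated with a spore suspension of the rust, then held in darkness at 19° C and 75% relative humidity. One day later the water-diluted formulated compound was applied, with incubation continued under a 12 h light/dark cycle.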

[3] = tested on: Glomerella lagenarium (Colletotrichum lagenarium); assay: Fungicidal activity against Glomerella lagenarium (Colletotrichum lagenarium) liquid culture / cucumber / preventative (anthracnose); format: cell-based; settings: Colletotrichum orbiculare; 20 ppm in the applied formulation; liquid culture (PDB), growth inhibition measured photometrically after 3 to 4 days; compared to untreated control; read-out: disease control
Summary of the method: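 Percent activity against the untreated check was derived from photometric growth measurements made 2 to 7 days after conidia in potato dextrose broth were combined with compound at 20 ppm. Cultures were kept dark at 24 °C and 96% humidity.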

C=C(C)C(=O)N(Cc1ccc(-c2noc(C(F)(F)F)n2)cc1)CC1CCCO1 (stereo not drawn) [Compound 1.433, 2-methyl-N-(tetrahydrofuran-2-ylmethyl)-N-[[4-[5-(trifluoromethyl)-1,2,4-oxadiazol-3-yl]phenyl]methyl]-prop-2-enamide]
≥ 80%: pest or weed control at 200 ppm [1] | pest or weed control at 200 ppm [2] | inhibition of growth at 20 ppm [3]

C#CC(=O)N(Cc1ccc(-c2noc(C(F)(F)F)n2)cc1)CC1CCCO1 (stereo not drawn) [Compound 1.434, N-(tetrahydrofuran-2-ylmethyl)-N-[[4-[5-(trifluoromethyl)-1,2,4-oxadiazol-3-yl]phenyl]methyl] prop-2-ynamide]
≥ 80%: pest or weed control at 200 ppm [1] | pest or weed control at 200 ppm [2] | inhibition of growth at 20 ppm [3]

CC(=O)OCC(=O)N(Cc1ccc(-c2noc(C(F)(F)F)n2)cc1)CC1CCCO1 (stereo not drawn) [Compound 1.435, [2-oxo-2-[tetrahydrofuran-2-ylmethyl-[[4-[5-(trifluoromethyl)-1,2,4-oxadiazol-3-yl]phenyl]methyl]-amino]ethyl] acetate]
≥ 80%: pest or weed control at 200 ppm [1] | pest or weed control at 200 ppm [2] | inhibition of growth at 20 ppm [3]

CC1(C(=O)N(Cc2ccc(-c3noc(C(F)(F)F)n3)cc2)CC2CCCO2)COC1 (stereo not drawn) [Compound 1.438, 3-methyl-N-(tetrahydrofuran-2-ylmethyl)-N-[[4-[5-(trifluoromethyl)-1,2,4-oxadiazol-3-yl]phenyl)methyl]-oxetane-3-carboxamide]
≥ 80%: pest or weed control at 200 ppm [1] | pest or weed control at 200 ppm [2] | inhibition of growth at 20 ppm [3]

O=C(C1CCCO1)N(Cc1ccc(-c2noc(C(F)(F)F)n2)cc1)CC1CCCO1 (stereo not drawn) [Compound 1.442, N-(tetrahydrofuran-2-ylmethyl)-N-[[4-[5-(trifluoromethyl)-1,2,4-oxadiazol-3-yl]phenyl]methyl]-tetrahydrofuran-2-carboxamide]
≥ 80%: pest or weed control at 200 ppm [1] | pest or weed control at 200 ppm [2] | inhibition of growth at 20 ppm [3]

N#CC1(C(=O)N(Cc2ccc(-c3noc(C(F)(F)F)n3)cc2)CC2CCCO2)CC1 (stereo not drawn) [Compound 1.443, 1-cyano-N-(tetrahydrofuran-2-ylmethyl)-N-[[4-[5-(trifluoromethyl)-1,2,4-oxadiazol-3-yl]phenyl]methyl]-cyclopropane-carboxamide]
≥ 80%: pest or weed control at 200 ppm [1] | pest or weed control at 200 ppm [2] | inhibition of growth at 20 ppm [3]

COC(C)C(=O)N(Cc1ccc(-c2noc(C(F)(F)F)n2)cc1)CC1CCCO1 (stereo not drawn) [Compound 1.446, 2-methoxy-N-(tetrahydrofuran-2-ylmethyl)-N-[[4-[5-(trifluoromethyl)-1,2,4-oxadiazol-3-yl]phenyl]methyl]-propanamide]
≥ 80%: pest or weed control at 200 ppm [1] | pest or weed control at 200 ppm [2] | inhibition of growth at 20 ppm [3]

O=C(C1OCCO1)N(Cc1ccc(-c2noc(C(F)(F)F)n2)cc1)CC1CCCO1 (stereo not drawn) [Compound 1.447, N-(tetrahydrofuran-2-ylmethyl)-N-[[4-[5-(trifluoromethyl)-1,2,4-oxadiazol-3-yl]phenyl]methyl]-1,3-dioxolane-2-carboxamide]
≥ 80%: pest or weed control at 200 ppm [1] | pest or weed control at 200 ppm [2] | inhibition of growth at 20 ppm [3]

O=C(CC(F)(F)F)N(Cc1ccc(-c2noc(C(F)(F)F)n2)cc1)CC1CCCO1 (stereo not drawn) [Compound 1.448, 3,3,3-trifluoro-N-(tetrahydrofuran-2-ylmethyl)-N-[[4-[5-(trifluoromethyl)-1,2,4-oxadiazol-3-yl]phenyl]methyl]-propanamide]
≥ 80%: pest or weed control at 200 ppm [1] | pest or weed control at 200 ppm [2] | inhibition of growth at 20 ppm [3]

O=C(C1CC1)N(Cc1ccc(-c2noc(C(F)(F)F)n2)cc1)CC1CCCO1 (stereo not drawn) [Compound 1.450, N-(tetrahydrofuran-2-ylmethyl)-N-[[4-[5-(trifluoromethyl)-1,2,4-oxadiazol-3-yl]phenyl]methyl]-cyclopropane-carboxamide]
≥ 80%: pest or weed control at 200 ppm [1] | pest or weed control at 200 ppm [2] | inhibition of growth at 20 ppm [3]

CC(=O)N(Cc1ccc(-c2noc(C(F)(F)F)n2)cc1)CC1CCCO1 (stereo not drawn) [Compound 1.451, N-(tetrahydrofuran-2-ylmethyl)-N-[[4-[5-(trifluoromethyl)-1,2,4-oxadiazol-3-yl]phenyl]methyl]-acetate]
≥ 80%: pest or weed control at 200 ppm [1] | pest or weed control at 200 ppm [2] | inhibition of growth at 20 ppm [3]

COCCCC(=O)N(Cc1ccc(-c2noc(C(F)(F)F)n2)cc1)CC1CCCO1 (stereo not drawn) [Compound 1.452, 4-methoxy-N-(tetrahydrofuran-2-ylmethyl)-N-[[4-[5-(trifluoromethyl)-1,2,4-oxadiazol-3-yl]phenyl]methyl]-butanamide]
≥ 80%: pest or weed control at 200 ppm [1] | pest or weed control at 200 ppm [2] | inhibition of growth at 20 ppm [3]

COCCC(=O)N(Cc1ccc(-c2noc(C(F)(F)F)n2)cc1)Cc1ccco1 [Compound 1.456, N-(2-furylmethyl)-3-methoxy-N-[[4-[5-(trifluoromethyl)-1,2,4-oxadiazol-3-yl]phenyl]methyl]-propanamide]
≥ 80%: pest or weed control at 200 ppm [1] | pest or weed control at 200 ppm [2] | inhibition of growth at 20 ppm [3]

O=C(C1CCC1)N(Cc1ccc(-c2noc(C(F)(F)F)n2)cc1)Cc1ccco1 [Compound 1.458, N-(2-furylmethyl)-N-[[4-[5-(trifluoromethyl)-1,2,4-oxadiazol-3-yl]phenyl]methyl]-cyclobutane-carboxamide]
≥ 80%: pest or weed control at 200 ppm [1] | pest or weed control at 200 ppm [2] | inhibition of growth at 20 ppm [3]

COCC(=O)N(Cc1ccc(-c2noc(C(F)(F)F)n2)cc1)Cc1ccco1 [Compound 1.459, N-(2-furylmethyl)-2-methoxy-N-[[4-[5-(trifluoromethyl)-1,2,4-oxadiazol-3-yl]phenyl]methyl]-acetamide]
≥ 80%: pest or weed control at 200 ppm [1] | pest or weed control at 200 ppm [2] | inhibition of growth at 20 ppm [3]

CC1CC1C(=O)N(Cc1ccc(-c2noc(C(F)(F)F)n2)cc1)Cc1ccco1 (stereo not drawn) [Compound 1.460, N-(2-furylmethyl)-2-methyl-N-[[4-[5-(trifluoromethyl)-1,2,4-oxadiazol-3-yl]phenyl]methyl]-cyclopropane-carboxamide]
≥ 80%: pest or weed control at 200 ppm [1] | pest or weed control at 200 ppm [2] | inhibition of growth at 20 ppm [3]

CC(C)C(=O)N(Cc1ccc(-c2noc(C(F)(F)F)n2)cc1)Cc1ccco1 [Compound 1.463, N-(2-furylmethyl)-2-methyl-N-[[4-[5-(trifluoromethyl)-1,2,4-oxadiazol-3-yl]phenyl]methyl]-propanamide]
≥ 80%: pest or weed control at 200 ppm [1] | pest or weed control at 200 ppm [2] | inhibition of growth at 20 ppm [3]

CCCC(=O)N(Cc1ccc(-c2noc(C(F)(F)F)n2)cc1)Cc1ccco1 [Compound 1.465, N-(2-furylmethyl)-N-[[4-[5-(trifluoromethyl)-1,2,4-oxadiazol-3-yl]phenyl]methyl]-butanamide]
≥ 80%: pest or weed control at 200 ppm [1] | pest or weed control at 200 ppm [2] | inhibition of growth at 20 ppm [3]

COCCCC(=O)N(Cc1ccc(-c2noc(C(F)(F)F)n2)cc1)Cc1ccco1 [Compound 1.467, N-(2-furylmethyl)-4-methoxy-N-[[4-[5-(trifluoromethyl)-1,2,4-oxadiazol-3-yl]phenyl]methyl]-butanamide]
≥ 80%: pest or weed control at 200 ppm [1] | pest or weed control at 200 ppm [2] | inhibition of growth at 20 ppm [3]

CC1(C(=O)N(Cc2ccc(-c3noc(C(F)(F)F)n3)cc2)Cc2ccco2)COC1 [Compound 1.468, N-(2-furylmethyl)-3-methyl-N-[[4-[5-(trifluoromethyl)-1,2,4-oxadiazol-3-yl]phenyl]methyl]-oxetane-3-carboxamide]
≥ 80%: pest or weed control at 200 ppm [1] | pest or weed control at 200 ppm [2] | inhibition of growth at 20 ppm [3]

O=C(C1CCCO1)N(Cc1ccc(-c2noc(C(F)(F)F)n2)cc1)Cc1ccco1 (stereo not drawn) [Compound 1.469, N-(2-furylmethyl)-N-[[4-[5-(trifluoromethyl)-1,2,4-oxadiazol-3-yl]phenyl]methyl]-tetrahydrofuran-2-carboxamide]
≥ 80%: pest or weed control at 200 ppm [1] | pest or weed control at 200 ppm [2] | inhibition of growth at 20 ppm [3]

O=C(C1OCCO1)N(Cc1ccc(-c2noc(C(F)(F)F)n2)cc1)Cc1ccco1 [Compound 1.473, N-(2-furylmethyl)-N-[[4-[5-(trifluoromethyl)-1,2,4-oxadiazol-3-yl]phenyl]methyl]-1,3-dioxolane-2-carboxamide]
≥ 80%: pest or weed control at 200 ppm [1] | pest or weed control at 200 ppm [2] | inhibition of growth at 20 ppm [3]

O=C(C1CC1)N(Cc1ccc(-c2noc(C(F)(F)F)n2)cc1)Cc1ccco1 [Compound 1.474, N-(2-furylmethyl)-N-[[4-[5-(trifluoromethyl)-1,2,4-oxadiazol-3-yl]phenyl]methyl]-cyclopropane-carboxamide]
≥ 80%: pest or weed control at 200 ppm [1] | pest or weed control at 200 ppm [2] | inhibition of growth at 20 ppm [3]

C=CCN(Cc1ccc(-c2noc(C(F)(F)F)n2)cc1)C(=O)CNC(C)=O [Compound 1.481, 2-acetamido-N-allyl-N-[[4-[5-(trifluoromethyl)-1,2,4-oxadiazol-3-yl]phenyl]methyl]-acetamide]
≥ 80%: pest or weed control at 200 ppm [1] | pest or weed control at 200 ppm [2] | inhibition of growth at 20 ppm [3]
